The values that follow come from PMC6068142, “Biochemical and structural characterization of a mannose binding jacalin-related lectin with two-sugar binding sites from pineapple (Ananas comosus) stem” (Scientific Reports, 2018).

For series [1], the target named is T1, AcmJRL (Ananas comosus, UniProt Q53J09).
T1 construct: native, purified from pineapple stem (D-mannose-Agarose, Superdex 75); initiator Met absent; N-terminus SGLVGLG; residues 2-145; not glycosylated; homodimer in solution, tetramer in crystal
Kind of series: isothermal titration calorimetry. The series is classed as binding. Conditions: for Ka (M^-1): Tris-HCl 50 mM, 150 mM NaCl, pH 7.4, 25 °C, fit with fixed n = 2 equivalent sites. The source says: isothermal titration calorimetry on AcmJRL

The target of series [2] is T2, AcmJRL (Ananas comosus, UniProt Q53J09).
T2 construct: native, purified from pineapple stem (D-mannose-Agarose, Superdex 75); initiator Met absent; N-terminus SGLVGLG; residues 2-145; not glycosylated; homodimer in solution, tetramer in crystal
T2 sequence (Q53J09 2-145): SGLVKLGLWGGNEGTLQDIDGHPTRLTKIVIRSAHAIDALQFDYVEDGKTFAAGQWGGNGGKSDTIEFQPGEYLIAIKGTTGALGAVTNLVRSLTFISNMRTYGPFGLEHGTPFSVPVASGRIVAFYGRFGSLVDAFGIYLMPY
Set-up: inhibition of lectin-induced rat erythrocyte hemagglutination, two-fold serial dilution, lowest saccharide concentration visibly decreasing agglutination. The note with it: minimum concentration inhibiting hemagglutination of rat erythrocytes; inhibitor. As for the experimental part:
Hemagglutinating activity was performed in microtiter plates with V-bottom wells, using the two-fold serial dilution method, starting with a concentration of 1 mg/mL (65 µM) lectin in phosphate-buffered saline containing 150 mM NaCl. Rabbit, sheep and rat erythrocytes were washed six times with 150 mM NaCl and resuspended at a final concentration of 3% (v/v) in 150 mM NaCl. Twenty-five µL of lectin solution were mixed with 25 µL of 3% erythrocytes, serially diluted and incubated at room temperature and 37 °C for 1 h. Hemagglutination activity was also assayed in the presence of 50 mM of the divalent ions Mg^2+, Mn^2+ Zn^2+ and Ca^2+. In this case, Tris-HCl 50 mM buffer at pH 7.2 containing 150 mM NaCl was used to avoid precipitation of phosphate compounds. The hemagglutination activity was given as a titer (the reciprocal of the highest two-fold dilution) or expressed as the minimum protein concentration (μg/mL), which produced visible hemagglutination and denoted as Hemagglutinating Unit (HU). Specific activity was defined as the HU per milligram of protein. The carbohydrate-binding specificity was determined by the inhibition of hemagglutination of rat erythrocytes, that were only the hemagglutinated ones, with starting concentrations of 100 mM for D-mannose, methyl-α-D-mannopyranoside and methyl-α-D-glucopyranoside, 50 mM for D-glucose and N-acetyl-D-glucosamine, 15 mM for Manα1,3Man and Manα1,3(Manα1,6)Man and 10 mM for Manα1,3Manα1,6(Manα1,6)Manα1,3. The different saccharides were serially diluted from the starting concentrations. After addition of 25 µL of A. comosus lectin (187.5 µg/mL) to all microplate wells, 25 µL of each saccharide were mixed separately in the first microtiter plate well followed by two-fold serial dilution and pre-incubated at room temperature for 1 h. Then 25 µL of 3% […] erythrocyte suspension were added to each well and the hemagglutination activity was evaluated after a further 1 h incubation period at room temperature and 37 °C. […] These are, e.g., the lectins from Phlebodium aureum rhizomes and Centrolobium microchaete seeds and heltuba[19],[47],[52].

The target of series [3] is T1, AcmJRL. Kind of series: inhibition of rat erythrocyte hemagglutination. Type of series: cell-based. Conditions: AcmJRL 62.5 µg/mL; two-fold serial dilution of sugar.
Series [4] concerns the molecule itself. Kind of series: SEC; FPLC gel filtration on Superdex 75 of affinity-purified AcmJRL; 0.15 mM protein; estimated native mass ~30 kDa.
Series [5] deals with the molecule itself. The series is described as follows: crystal structure; hanging drop vapor diffusion at 20 °C, protein at 17 mg/mL (1.1 mM); apo form (1.8 Å) and crystals soaked with D-mannose (2.75 Å) or methyl-α-D-mannopyranoside (1.9 Å).

≈ marks a conversion by molar mass, not a printed value. Where two headings read alike, the source gives them in different places.

`OC[C@H]1OC(O)[C@H](O)[C@@H](O)[C@@H]1O` (stereo partly drawn) [D-Glucose]: in series [1], the “Ka (M^-1)” value is on record as 83 ± 3. Moreover, the “MIC” value in series [2] was determined as 3120 µM (≈ 562 µg/mL).

Regarding `OC[C@H]1OC(O)[C@@H](O)[C@@H](O)[C@@H]1O` (stereo partly drawn) [D-Mannose], in series [1] (read-out: Ka (M^-1) (converted)), the Kd was 5.62 mM. The “MIC” value in series [2] was found to be 6250 µM (≈ 1130 µg/mL).

For the molecule `CC(=O)N[C@H]1C(O)O[C@H](CO)[C@@H](O)[C@@H]1O` (stereo partly shown) [GlcNAc], the “Ka (M^-1)” value in series [1] was 88 ± 1. Moreover, the “MIC” value in series [2] amounted to 3120 µM (≈ 690 µg/mL).

For `OC[C@H]1O[C@H](OC[C@H]2O[C@H](OC[C@H]3OC(O)[C@@H](O)[C@@H](O[C@H]4O[C@H](CO)[C@@H](O)[C@H](O)[C@@H]4O)[C@@H]3O)[C@@H](O)[C@@H](O[C@H]3O[C@H](CO)[C@@H](O)[C@H](O)[C@@H]3O)[C@@H]2O)[C@@H](O)[C@@H](O)[C@@H]1O` (stereo partly shown) [Mannopentaose], the “Ka (M^-1)” value in series [1] is 1694 ± 679. Also, the “MIC” value in series [2] was determined as 320 µM (≈ 265 µg/mL).

Consider `OC[C@H]1O[C@H](OC[C@H]2OC(O)[C@@H](O)[C@@H](O[C@H]3O[C@H](CO)[C@@H](O)[C@H](O)[C@@H]3O)[C@@H]2O)[C@@H](O)[C@@H](O)[C@@H]1O` (stereo partly shown) [Mannotriose], for which the “Ka (M^-1)” value in series [1] was found to be 734 ± 117. Further, the “MIC” value in series [2] was determined as 470 µM (≈ 237 µg/mL).

As for `OC[C@H]1O[C@H](O[C@H]2[C@H](O)[C@@H](CO)OC(O)[C@H]2O)[C@@H](O)[C@@H](O)[C@@H]1O` (stereo partly shown) [Manα1,3Man], the “Ka (M^-1)” value in series [1] is 421 ± 52. In series [2], the “MIC” value came out at 940 µM (≈ 322 µg/mL).

The molecule `CO[C@H]1O[C@H](CO)[C@@H](O)[C@H](O)[C@H]1O` [methyl-α-D-glucopyranoside] returned an MIC in series [3] of 1560 µM (≈ 303 µg/mL).

`CO[C@H]1O[C@H](CO)[C@@H](O)[C@H](O)[C@@H]1O` [methyl-α-D-mannopyranoside]: the MIC in series [3] amounted to 1560 µM (≈ 303 µg/mL).

B1: Ananas comosus mannose jacalin-related lectin (AcmJRL) (natural protein, UniProt Q53J09 2-145, looked up)
chain: SGLVKLGLWGGNEGTLQDIDGHPTRLTKIVIRSAHAIDALQFDYVEDGKTFAAGQWGGNGGKSDTIEFQPGEYLIAIKGTTGALGAVTNLVRSLTFISNMRTYGPFGLEHGTPFSVPVASGRIVAFYGRFGSLVDAFGIYLMPY
notes: jacalin-like lectin from Ananas comosus (pineapple) stem, SwissProt entry Q53J09_ANACO; each monomer in the crystal runs from Ser2 to Tyr145; not glycosylated; Homodimer in solution by size-exclusion chromatography (0.15 mM); tetramer in the crystal (1.1 mM); Purification methods are in the Supplementary Materials and Methods; also called A. comosus lectin; jacalin-like lectin from A. comosus
On to B1, for which the “stoichiometry N” value was 2 in series [4] and 4 in series [5].
